According to ChEMBL document CHEMBL1201862, “PubChem BioAssay data set” (2004):
One block for each molecule: values may come before it. Active and inactive are the calls of the source.

Legend:
P388 = assay: cells; assay type: functional; conditions: Mus musculus
SN12K1 = assay: cells; assay type: functional; conditions: Homo sapiens
P388/ADR = assay: cells; assay type: functional; conditions: Mus musculus
[1] = growth suppression of beta-catenin-knockout colon cells, dose response, cell-based, HCT116, human colon tumor (AID 1045); assay type: functional;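 note: HCT116 colon tumor cells with beta catenin knocked out; cells exposed to compound for 60 hours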
[2] = growth suppression of PTEN-null colon cells, dose response, cell-based, HCT116 PTEN knockout (AID 1047); assay type: functional;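 note: HCT116 colon tumor cells with PTEN knocked out; cells exposed to compound for 60 hours before readout; potency for loss of cell viability measured by luminescence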
[3] = HepG2 cell cytotoxicity, dose response, cytotoxicity control for Shn3 inhibitor project, CellTiter-Glo, cherry-picked (AID 624134); assay type: functional, cell-based
[4] = control 3'UTR Renilla luciferase suppression, dose response, counter-screen for Shn3 inhibitor project, cell-based, Clone20-Shn3RL, cherry-picked (AID 624133); assay type: functional
[5] = biological target: T1, Ubiquitin-conjugating enzyme E2 N (Homo sapiens, UniProt P61088); assay type: functional;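 note: Dose-response confirmation in a TR-FRET assay detecting UBC13-driven polyubiquitin chain formation, inhibition measured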
T1 sequence (P61088 whole entry): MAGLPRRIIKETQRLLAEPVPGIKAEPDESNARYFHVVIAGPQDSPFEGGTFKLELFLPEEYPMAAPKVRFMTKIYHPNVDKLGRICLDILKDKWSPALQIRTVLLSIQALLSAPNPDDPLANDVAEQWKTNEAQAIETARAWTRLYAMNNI

[6] = Luminescence Cell-Based Dose Retest to Confirm Inhibitors of Cancer Stem Cells. [Related pubchem assays (depositor defined):AID2717, AID2721]; assay type: functional; conditions: Homo sapiens
[7] = Shn3 3'UTR reporter inhibitors, dose response, cell-based, Clone20 osteoblasts, firefly luciferase, cherry-picked (AID 624132); assay type: functional;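 note: firefly luciferase luminescence from reporter carrying the Shn3 3'UTR in osteoblasts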
[8] = inhibitors of HIV Env-driven cell fusion, dose response, cherry-pick (AID 652057); assay type: functional, cell-based
[9] = inhibitors of clade B AD8 Env fusion, dose response, cell-based, cherry-pick (AID 652062); assay type: functional;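 note: luciferase signal from cell-cell fusion driven by HIV-1 clade B AD8 Env; potency is for inhibitors of fusion seen as a drop in luminescence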
[10] = biological target: T2, Sentrin-specific protease 6 (Homo sapiens, UniProt Q9GZR1); assay type: functional;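 note: Luminescence-based dose-response confirmatory assay of SENP6 inhibition, following up an ultra-high-throughput screen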
T2 sequence (Q9GZR1 whole entry): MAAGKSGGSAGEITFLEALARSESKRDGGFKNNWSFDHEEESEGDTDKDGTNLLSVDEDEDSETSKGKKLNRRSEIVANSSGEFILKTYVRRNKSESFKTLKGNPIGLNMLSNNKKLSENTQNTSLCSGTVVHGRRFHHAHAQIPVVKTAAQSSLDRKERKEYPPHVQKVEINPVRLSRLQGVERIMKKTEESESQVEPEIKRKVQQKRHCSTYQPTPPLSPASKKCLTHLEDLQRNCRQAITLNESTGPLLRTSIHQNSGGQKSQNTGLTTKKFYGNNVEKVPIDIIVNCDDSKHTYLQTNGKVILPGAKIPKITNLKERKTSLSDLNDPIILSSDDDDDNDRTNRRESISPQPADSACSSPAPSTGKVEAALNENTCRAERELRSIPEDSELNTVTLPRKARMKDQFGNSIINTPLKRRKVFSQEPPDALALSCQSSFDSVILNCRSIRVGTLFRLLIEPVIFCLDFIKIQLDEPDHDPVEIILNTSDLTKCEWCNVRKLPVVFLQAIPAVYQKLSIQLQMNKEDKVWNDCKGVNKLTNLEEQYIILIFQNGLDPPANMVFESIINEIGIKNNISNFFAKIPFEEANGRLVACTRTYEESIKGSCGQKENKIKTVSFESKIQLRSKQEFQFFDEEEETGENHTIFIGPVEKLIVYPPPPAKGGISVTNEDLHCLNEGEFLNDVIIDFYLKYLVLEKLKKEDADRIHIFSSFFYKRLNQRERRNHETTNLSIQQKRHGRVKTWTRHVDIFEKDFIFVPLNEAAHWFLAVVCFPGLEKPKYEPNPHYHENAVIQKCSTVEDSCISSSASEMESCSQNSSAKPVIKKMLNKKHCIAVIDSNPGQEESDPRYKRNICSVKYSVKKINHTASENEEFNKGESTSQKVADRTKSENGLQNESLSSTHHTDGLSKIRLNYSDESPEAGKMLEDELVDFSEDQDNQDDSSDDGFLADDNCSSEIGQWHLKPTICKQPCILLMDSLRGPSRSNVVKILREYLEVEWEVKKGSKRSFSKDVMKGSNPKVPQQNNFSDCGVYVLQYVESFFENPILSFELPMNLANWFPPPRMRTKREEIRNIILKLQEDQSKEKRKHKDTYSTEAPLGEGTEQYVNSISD

Caspase-3 = biological target: T3, Caspase-3 (Homo sapiens, UniProt P42574); assay type: functional;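 note: Dose-response selectivity test against caspase-3 for candidate inhibitors of sentrin-specific proteases (SENPs)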
T3 sequence (P42574 whole entry): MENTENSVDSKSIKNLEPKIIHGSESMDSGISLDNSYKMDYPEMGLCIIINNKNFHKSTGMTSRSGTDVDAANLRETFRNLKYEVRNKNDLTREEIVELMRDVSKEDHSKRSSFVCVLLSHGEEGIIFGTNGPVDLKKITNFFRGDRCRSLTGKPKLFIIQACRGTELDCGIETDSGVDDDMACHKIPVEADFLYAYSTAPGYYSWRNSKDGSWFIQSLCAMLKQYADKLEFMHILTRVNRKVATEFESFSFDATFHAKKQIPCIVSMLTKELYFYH

[11] = HEp-2 cell cytotoxicity, dose response, cytotoxicity control for RSV inhibitor project, HTS (AID 2410); assay type: functional; conditions: human respiratory syncytial virus
[12] = biological target: T4, Sentrin-specific protease 7 (Homo sapiens, UniProt Q9BQF6); assay type: functional;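 note: Luminescence-based dose-response confirmation of ultra-high-throughput screening hits, measuring inhibition of SENP7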
T4 sequence (Q9BQF6 whole entry): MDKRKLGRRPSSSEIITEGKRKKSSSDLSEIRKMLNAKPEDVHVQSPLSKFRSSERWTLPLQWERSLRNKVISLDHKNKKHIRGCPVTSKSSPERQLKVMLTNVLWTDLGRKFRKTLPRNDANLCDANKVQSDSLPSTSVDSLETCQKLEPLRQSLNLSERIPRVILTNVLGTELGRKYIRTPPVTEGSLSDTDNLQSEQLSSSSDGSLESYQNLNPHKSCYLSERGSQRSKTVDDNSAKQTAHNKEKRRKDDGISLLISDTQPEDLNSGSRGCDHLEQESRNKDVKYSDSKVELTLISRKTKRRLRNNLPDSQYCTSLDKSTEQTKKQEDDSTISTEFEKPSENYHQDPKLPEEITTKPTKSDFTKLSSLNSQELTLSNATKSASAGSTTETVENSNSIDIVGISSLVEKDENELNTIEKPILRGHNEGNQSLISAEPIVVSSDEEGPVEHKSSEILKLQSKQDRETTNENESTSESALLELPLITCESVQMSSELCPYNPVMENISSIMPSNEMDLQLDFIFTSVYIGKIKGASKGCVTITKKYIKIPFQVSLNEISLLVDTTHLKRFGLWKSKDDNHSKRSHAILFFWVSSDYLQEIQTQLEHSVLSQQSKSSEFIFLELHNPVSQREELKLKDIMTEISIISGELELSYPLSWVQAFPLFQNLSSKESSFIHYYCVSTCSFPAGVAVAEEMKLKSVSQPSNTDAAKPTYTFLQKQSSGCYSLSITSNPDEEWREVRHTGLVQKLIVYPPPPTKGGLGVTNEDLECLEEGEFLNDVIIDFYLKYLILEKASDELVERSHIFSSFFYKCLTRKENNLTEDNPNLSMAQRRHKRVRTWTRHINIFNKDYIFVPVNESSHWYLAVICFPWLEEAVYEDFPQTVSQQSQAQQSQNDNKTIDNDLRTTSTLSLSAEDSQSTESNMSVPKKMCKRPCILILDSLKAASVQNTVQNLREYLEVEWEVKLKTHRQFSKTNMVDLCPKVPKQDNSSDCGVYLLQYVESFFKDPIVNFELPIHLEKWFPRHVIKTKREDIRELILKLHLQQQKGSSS

[13] = biological target: T5, Sentrin-specific protease 8 (Homo sapiens, UniProt Q96LD8); assay type: functional;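 note: luminescence read-out of SENP8 inhibition, dose-response confirmation following an ultra-high-throughput screen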
T5 sequence (Q96LD8 whole entry): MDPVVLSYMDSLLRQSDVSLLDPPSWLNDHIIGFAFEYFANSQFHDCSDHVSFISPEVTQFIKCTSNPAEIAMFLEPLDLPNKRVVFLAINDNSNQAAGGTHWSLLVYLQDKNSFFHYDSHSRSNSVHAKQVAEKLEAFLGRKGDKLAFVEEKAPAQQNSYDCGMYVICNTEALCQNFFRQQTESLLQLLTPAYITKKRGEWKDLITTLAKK

[14] = A549 cell cytotoxicity, dose response, cytotoxicity control, plate reader, cherry-pick, antagonist series (AID 743412); assay type: functional, cell-based
[15] = HepG2 cell cytotoxicity, dose response, cytotoxicity control, plate reader, cherry-pick, antagonist series (AID 743416); assay type: functional, cell-based
Protein skinhead-1 = biological target: T6, Protein skinhead-1 (Caenorhabditis elegans, UniProt P34707); assay type: functional
T6 sequence (P34707 whole entry): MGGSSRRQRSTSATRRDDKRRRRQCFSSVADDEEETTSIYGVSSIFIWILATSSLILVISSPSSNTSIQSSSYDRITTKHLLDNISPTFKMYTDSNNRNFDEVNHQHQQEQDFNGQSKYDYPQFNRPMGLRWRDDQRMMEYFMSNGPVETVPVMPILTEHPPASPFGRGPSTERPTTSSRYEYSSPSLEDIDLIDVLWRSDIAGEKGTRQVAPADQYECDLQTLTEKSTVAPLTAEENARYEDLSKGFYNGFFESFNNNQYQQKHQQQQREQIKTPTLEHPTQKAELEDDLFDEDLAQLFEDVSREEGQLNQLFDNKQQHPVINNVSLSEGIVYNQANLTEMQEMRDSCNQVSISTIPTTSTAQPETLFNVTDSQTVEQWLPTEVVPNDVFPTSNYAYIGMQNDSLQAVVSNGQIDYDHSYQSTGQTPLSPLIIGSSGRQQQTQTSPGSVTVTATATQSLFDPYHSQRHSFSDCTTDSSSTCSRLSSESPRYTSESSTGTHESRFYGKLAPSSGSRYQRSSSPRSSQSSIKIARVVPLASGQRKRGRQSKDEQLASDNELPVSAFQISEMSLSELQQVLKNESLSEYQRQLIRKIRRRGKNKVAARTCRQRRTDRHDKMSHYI

SMILES: C=C1CC(OC)(C(O)C(=O)N[C@H]2OCO[C@H]3C2O[C@H](C[C@@H](CO)OC)C(C)(C)C3OC)O[C@H](C)[C@@H]1C (stereo partly specified)
GI50 (P388): < 0.00931 µM (active) | GI50 (SN12K1): < 0.00931 µM (active) | GI50 (P388/ADR): < 0.00931 µM (active)

SMILES: Cc1c(Cl)cccc1N/C(SCC(=O)N1CCCCCC1)=C(/C#N)c1nc2ccccc2s1
EC50 [1]: 4.02 µM (active) | EC50 [2]: 4.06 µM (active)

SMILES: CC(C)(C)c1ccc(C(=O)NCCCN2CCN(CCCNC(=O)c3ccc(C(C)(C)C)cc3)CC2)cc1
EC50 [1]: 5.18 µM (active) | AC50 [3]: 15.2 µM (active) | AC50 [4]: 1.62 µM (active) | IC50 [5]: > 20 µM (inactive) | EC50 [2]: 27.9 µM (active) | AC50 [6]: 6.71 µM (active) | AC50 [7]: 4.84 µM (active)

SMILES: CCCCCCCCCCCCCCCCOCC(COP(=O)([O-])OCC[N+](C)(C)C)OCCCCCCCCCCCCCCCC (stereo unspecified)
GI50 (P388): > 100 µM (inactive) | GI50 (SN12K1): > 100 µM (inactive) | GI50 (P388/ADR): > 100 µM (inactive)

SMILES: COc1cccc(S(=O)(=O)N(C)C[C@H]2Oc3cc(C4=CCCC4)ccc3S(=O)(=O)N([C@H](C)CO)C[C@H]2C)c1
AC50 [8]: 3.31 µM (active) | AC50 [9]: 3.77 µM (active)

SMILES: CN(c1ccccc1)c1c(-c2ccccc2)c(=O)oc2c1ccc1occc12
GI50 (P388): 37.8 µM (inactive) | GI50 (SN12K1): > 100 µM (inactive) | GI50 (P388/ADR): 74.6 µM (inactive)

SMILES: COc1cc2c(cc1Oc1c(Oc3c(O)c(OC)cc4c3C(CC(C)C)N(C)CC4)c(OC)cc3c1C(CC(C)C)N(C)CC3)C(CC(C)C)N(C)CC2 (stereo unspecified)
GI50 (P388): 0.279 µM (active) | GI50 (SN12K1): 0.794 µM (active) | GI50 (P388/ADR): 0.706 µM (active)

IC50 [10]: 8 µM (active) | IC50 (Caspase-3): 41.8 µM (active) | IC50 [12]: 3.79 µM (active)
SMILES: Cc1cccnc1Nc1nc(-c2ccc(O)cc2O)cs1
CC50 [11]: 27 µM (active) | IC50 [13]: 15.5 µM (active)

SMILES: COc1ccc2c(c1[N+](=O)[O-])CC[C@@H]1[C@@H]2CC[C@]2(C)C(=O)CC[C@@H]12
GI50 (P388): > 25 µM (inactive) | GI50 (SN12K1): > 25 µM (inactive) | GI50 (P388/ADR): 20.9 µM (inactive)

SMILES: Nc1c(C(=O)Nc2ccc(C3=NCCN3)cc2)cccc1C(=O)Nc1ccc(C2=NCCN2)cc1
GI50 (P388): 12.5 µM (inactive) | GI50 (SN12K1): > 100 µM (inactive) | GI50 (P388/ADR): > 100 µM (inactive)

SMILES: Oc1ncc(N(CCCl)CCCl)c(O)n1 [URACIL MUSTARD]
GI50 (P388): 1.26 µM (inactive) | GI50 (SN12K1): 17.4 µM (inactive) | GI50 (P388/ADR): 1.77 µM (inactive)

SMILES: O=C1C(=O)c2cc([N+](=O)[O-])ccc2-c2ccc([N+](=O)[O-])cc21
GI50 (P388): 0.201 µM (active) | GI50 (SN12K1): 0.29 µM (active) | GI50 (P388/ADR): 0.292 µM (active)

SMILES: COc1ccccc1CN(C)C[C@@H]1OCc2cnnn2CCCC(=O)N([C@H](C)CO)C[C@H]1C
AC50 [14]: > 52 µM (inactive) | AC50 [15]: 39.8 µM (active)

SMILES: COc1ccc(/C(O)=C/c2nc3ccc(C(=O)NCCc4cccc(C)c4)cc3nc2O)cc1OC
EC50 [1]: 5.65 µM (active) | EC50 [2]: 6.66 µM (active)

SMILES: O=C(N/N=C/c1cccs1)c1cccc(NC(=O)c2ccc(Cl)cc2)c1
EC50 [1]: 55.4 µM (active) | EC50 [2]: 61.1 µM (active)

IC50 (Protein skinhead-1): > 100 µM (inactive) | IC50 [10]: 6.65 µM (active) | IC50 (Caspase-3): 20.5 µM (active) | IC50 [12]: 12.1 µM (active)
SMILES: Cc1ccccc1-c1nnc(-c2ccccc2C)o1
IC50 [13]: 95.5 µM (active)

SMILES: CCN(CC)c1c(C)c(C(=O)OC)nn1-c1ccccc1
GI50 (P388): 34.8 µM (inactive) | GI50 (SN12K1): > 100 µM (inactive) | GI50 (P388/ADR): 31.6 µM (inactive)

SMILES: O=C(NC(=S)Nc1ccc(NC(=O)c2cccs2)cc1)c1cc2ccccc2o1
EC50 [1]: 22.6 µM (active) | EC50 [2]: 15.5 µM (active)
